The structures appear in SMILES notation. Residues, ends and D or L forms follow the SMILES beside them.

Data set [1] addresses T1, Solute carrier organic anion transporter family member 1B1 (Homo sapiens, UniProt Q9Y6L6).
T1 sequence (Q9Y6L6 whole entry): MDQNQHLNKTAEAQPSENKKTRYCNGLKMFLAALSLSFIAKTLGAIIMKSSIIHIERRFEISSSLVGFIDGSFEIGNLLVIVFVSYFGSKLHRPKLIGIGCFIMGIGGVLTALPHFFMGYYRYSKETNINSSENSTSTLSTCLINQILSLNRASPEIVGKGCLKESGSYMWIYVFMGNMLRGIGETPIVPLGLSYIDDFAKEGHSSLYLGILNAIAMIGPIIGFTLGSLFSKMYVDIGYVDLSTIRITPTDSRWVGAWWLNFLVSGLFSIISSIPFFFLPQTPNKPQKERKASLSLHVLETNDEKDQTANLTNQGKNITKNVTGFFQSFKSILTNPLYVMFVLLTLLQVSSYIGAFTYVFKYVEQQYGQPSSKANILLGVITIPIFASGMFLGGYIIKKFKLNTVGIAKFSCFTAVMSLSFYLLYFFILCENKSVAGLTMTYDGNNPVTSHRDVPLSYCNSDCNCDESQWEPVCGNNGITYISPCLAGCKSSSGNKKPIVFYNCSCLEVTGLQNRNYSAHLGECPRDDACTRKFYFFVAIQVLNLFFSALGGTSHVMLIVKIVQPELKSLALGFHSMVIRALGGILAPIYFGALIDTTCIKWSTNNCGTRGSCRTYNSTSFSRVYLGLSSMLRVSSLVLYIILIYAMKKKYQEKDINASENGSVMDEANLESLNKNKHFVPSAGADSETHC
Particulars: chinese hamster, cho, 10 µM.

Data set [2] concerns the target T2, Solute carrier organic anion transporter family member 1B3 (Homo sapiens, UniProt Q9NPD5).
T2 sequence (Q9NPD5 whole entry): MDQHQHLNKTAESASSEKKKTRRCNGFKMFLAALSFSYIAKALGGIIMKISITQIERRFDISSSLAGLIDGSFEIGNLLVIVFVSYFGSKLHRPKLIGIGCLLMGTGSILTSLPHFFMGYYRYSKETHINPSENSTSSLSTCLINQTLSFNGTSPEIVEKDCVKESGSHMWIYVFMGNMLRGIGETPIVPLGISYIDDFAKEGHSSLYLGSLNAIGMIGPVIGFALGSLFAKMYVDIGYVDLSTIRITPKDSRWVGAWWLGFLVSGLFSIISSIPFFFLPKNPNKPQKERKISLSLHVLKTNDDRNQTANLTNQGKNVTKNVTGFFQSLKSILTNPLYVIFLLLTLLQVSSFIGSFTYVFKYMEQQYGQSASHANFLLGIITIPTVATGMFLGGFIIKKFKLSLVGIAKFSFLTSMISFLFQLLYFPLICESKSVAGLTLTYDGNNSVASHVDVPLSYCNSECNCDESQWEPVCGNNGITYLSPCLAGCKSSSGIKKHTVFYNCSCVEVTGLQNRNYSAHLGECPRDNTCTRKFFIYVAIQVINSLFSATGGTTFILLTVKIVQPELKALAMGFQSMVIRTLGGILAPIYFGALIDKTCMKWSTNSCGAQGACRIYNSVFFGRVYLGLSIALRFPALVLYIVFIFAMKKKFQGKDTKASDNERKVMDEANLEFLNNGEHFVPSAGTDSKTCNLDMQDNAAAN
Particulars: chinese hamster, cho, 10 µM.

Consider `O=c1cc(-c2ccccc2)oc2c(O)c(O)ccc12` [7,8-DIHYDROXYFLAVONE], for which the residual activity in data set [1] is 107.3%; in data set [2] it was 140.6%.
In the case of `Cn1c(=O)[nH]c(=O)c2[nH]cnc21` [3-METHYLXANTHINE], the residual activity in data set [1] is 101.5%; in data set [2], 95.53%.
The like results for `CC(N)C(O)c1ccc(O)c(O)c1.Cl` (stereo not drawn) [NORDEFRIN HYDROCHLORIDE] were, in that order, 122.3% and 103.4%.
Turning to `O[C@H]1[C@H]2c3cc4c(cc3CN3CCC(=C[C@@H]1O)[C@H]23)OCO4` [LYCORINE], the residual activity was determined as 60.96% in data set [1] and 97.14% in data set [2].
Consider `CCCCOc1cc(C(=O)NCCN(CC)CC)c2ccccc2n1.Cl` [DIBUCAINE HYDROCHLORIDE], for which the figures for the residual activity in data set [1] and in data set [2] were 103.4% and 94.35%, respectively.
As to `O=C/C=C/c1ccc(O)cc1` [p-HYDROXYCINNAMALDEHYDE], the residual activity in data set [1] turned out to be 139.6%; in data set [2] it was 70.79%.
The corresponding values for `CC(CN(C)C)CN1c2ccccc2CCc2ccccc21.O=C(O)/C=C\C(=O)O` (stereo not drawn) [TRIMIPRAMINE MALEATE] are 93.52% and 103.3%.
On to `CNCCCN1c2ccccc2CCc2ccccc21.Cl` [DESIPRAMINE HYDROCHLORIDE], for which the residual activity stood at 55.55% in data set [1] and 96.51% in data set [2].
Turning to `CNC(=O)ON=C(C)SC` [METHOMYL], the residual activity in data set [1] was found to be 80.5%; in data set [2] it was 109.3%.
In the case of `O=C(O)Cc1nn(Cc2ccc(Br)cc2F)c(=O)c2ccccc12` [PONALRESTAT], the residual activity is 139.9% in data set [1] and 83.62% in data set [2].
The like results for `N#C[C@H](O[C@@H]1O[C@H](CO[C@@H]2O[C@H](CO)[C@@H](O)[C@H](O)[C@H]2O)[C@@H](O)[C@H](O)[C@H]1O)c1ccccc1` [AMYGDALIN] were, in that order, 118.1% and 103.6%.
As for `Cc1ccnc(NS(=O)(=O)c2ccc(N)cc2)n1` [SULFAMERAZINE], the figures for the residual activity in data set [1] and in data set [2] were 84.88% and 101.2%, respectively.
The like results for `CC(=O)O[C@@H]1CC(=O)[C@]2(C)[C@H]3CC[C@@]4(C)[C@H](c5ccoc5)OC(=O)[C@H]5O[C@]54[C@]3(C)C(=O)C[C@H]2C1(C)C` were, in that order, 80.54% and 97.89%.
Regarding `CNc1ccccc1C(=O)O`, the residual activity in data set [1] came out at 90.95%; in data set [2] it was 100.4%.
Turning to `COc1ccc(-c2c(O)c3c(OC)c4c(cc3oc2=O)OC(C)(C)C=C4)cc1` [ROBUSTIC ACID], the residual activity in data set [1] was found to be 96.44%; in data set [2], 74.37%.
The like results for `CC[C@@H]1C(=O)OC[C@@H]1Cc1cncn1C.O=[N+]([O-])O` [PILOCARPINE NITRATE] were, in that order, 82.84% and 95.87%.
For the compound `Cl.OC1CCCCC1N1CCC(c2ccccc2)CC1` (stereo not drawn) [VESAMICOL HYDROCHLORIDE], the residual activity is recorded as 64.34% in data set [1] and 101.2% in data set [2].
Consider `COC(=O)c1c(C)cc(OC(=O)c2c(C)cc(O)c(C=O)c2O)c(C)c1O` [ATRANORIN], for which the residual activity in data set [1] was found to be 122.9%; in data set [2], 109.7%.
As to `NCCCC[C@H](NC(=O)[C@H](Cc1ccc(O)cc1)NC(=O)[C@@H](N)CCCCN)C(=O)O` [LYSYL-TYROSYL-LYSINE ACETATE] (H-Lys-Tyr-Lys-OH), the residual activity in data set [1] was 85.47%; in data set [2], 124.3%.
As for `N[C@H](CO)Cc1ccccc1` [L-PHENYLALANINOL], the figures for the residual activity in data set [1] and in data set [2] were 77.2% and 101.5%, respectively.
`CC1(C)S[C@@H]2[C@H](NC(=O)[C@H](NC(=O)N3CCNC3=O)c3ccccc3)C(=O)N2[C@H]1C(=O)[O-].[Na+]` [AZLOCILLIN SODIUM]: the residual activity is on record as 96.91% in data set [1] and 85.12% in data set [2].
Regarding `NC(=O)c1cc([N+](=O)[O-])cc([N+](=O)[O-])c1` [NITROMIDE], the values for the residual activity in data set [1] and in data set [2] were 103.7% and 106.7%, respectively.
Regarding `NC(=O)N1c2ccccc2CC(=O)c2ccccc21` [OXCARBAZEPINE], the residual activity in data set [1] was determined as 71.5%; in data set [2] it was 85.1%.
For `OC[C@H]1O[C@@H](O[C@@H]2[C@@H](CO)O[C@](O)(CO)[C@H]2O)[C@H](O)[C@@H](O)[C@H]1O` [LACTULOSE], the residual activity turned out to be 90.31% in data set [1] and 104.9% in data set [2].
The like results for `CC(=O)OCC(=O)[C@@]12OC3(CCCC3)O[C@@H]1C[C@H]1[C@@H]3CCC4=CC(=O)C=C[C@]4(C)[C@@]3(F)[C@@H](O)C[C@@]12C` [AMCINONIDE] were, in that order, 35.76% and 56.58%.
For the compound `C[C@H](CCC(=O)O)[C@H]1CC[C@H]2[C@@H]3CC[C@@H]4C[C@H](O)CC[C@]4(C)[C@H]3C=C[C@]12C`, the residual activity came to 23.69% in data set [1] and 112% in data set [2].
Regarding `CC(C)CCC[C@@H](C)[C@H]1CC[C@H]2[C@@H]3CC=C4C[C@@H](O)CC[C@]4(C)[C@H]3CC[C@]12C` [CHOLESTEROL], the residual activity is listed as 95.51% in data set [1] and 100% in data set [2].
`CN(C)CCC(c1ccccc1)c1ccccn1.O=C(O)/C=C\C(=O)O` (stereo not drawn) [PHENIRAMINE MALEATE]: the residual activity was determined as 72.53% in data set [1] and 103.2% in data set [2].
Take `CC(=O)O[C@H]1CC[C@]2(C)C3=C(CC[C@H]2C1(C)C)[C@@]1(C)CC[C@H]([C@H](C)CCC=C(C)C)[C@]1(C)CC3`: the residual activity in data set [1] was 29.18%; in data set [2] it was 40.21%.
Take `CC(=O)O[C@H]1CC[C@@]2(C)C(=CC[C@@H]3[C@@H]2CC[C@]2(C)C(=O)CC[C@@H]32)C1` [DEHYDROEPIANDROSTERONE ACETATE]: the residual activity in data set [1] is reported as 97.61%; in data set [2] it was 140.4%.
On to `OC[C@@H]1CCCN2CCCC[C@H]12` [LUPININE], for which the residual activity is given as 114.4% in data set [1] and 90.27% in data set [2].
Regarding `CC(C(=O)O)c1ccc(C(=O)c2cccs2)cc1` (stereo not drawn) [SUPROFEN], the residual activity in data set [1] was 108.5%; in data set [2] it was 96.21%.
The like results for `CC(=O)O[C@H]1CC[C@]2(C)[C@H]3CC[C@@H]4[C@@H]5CC(C)(C)CC[C@]5(C(=O)O)CC[C@@]4(C)[C@]3(C)CC[C@H]2C1(C)C` were, in that order, 112.3% and 103.7%.
Turning to `C[C@]12C=CC(=O)C=C1CC[C@@H]1[C@@H]2CC[C@]2(C)C(=O)CC[C@@H]12` [ANDROSTENEDONE], the residual activity in data set [1] amounted to 128.1%; in data set [2] it was 104%.
As for `CC[C@@]1([C@H]2O[C@H]([C@H]3O[C@@](O)(CO)[C@H](C)C[C@@H]3C)C[C@H]2C)CC[C@H]([C@@]2(C)CC[C@]3(C[C@H](O)[C@@H](C)[C@@H]([C@H](C)[C@H](OC)[C@@H](C)C(=O)[O-])O3)O2)O1.[Na+]` [MONENSIN SODIUM], the residual activity is listed as 78.11% in data set [1] and 87% in data set [2].
Consider `CC(=O)OCC(=O)[C@@]1(O)CC[C@H]2[C@@H]3CCC4=CC(=O)CC[C@]4(C)[C@H]3[C@@H](O)C[C@@]21C` [HYDROCORTISONE ACETATE], for which the residual activity in data set [1] was 93.94%; in data set [2], 91.1%.
As to `OC[C@@H](O)[C@@H](O)[C@@H](O)CO` [RIBITOL], the figures for the residual activity in data set [1] and in data set [2] were 81.13% and 94.42%, respectively.
On to `O=C(NC(Cc1cc(=O)[nH]c2ccccc12)C(=O)O)c1ccc(Cl)cc1` (stereo not drawn) [REBAMIPIDE], for which the figures for the residual activity in data set [1] and in data set [2] were 97.98% and 109.2%, respectively.
Consider `CN(C)CCC=C1c2ccccc2CCc2ccccc21.Cl` [AMITRIPTYLINE HYDROCHLORIDE], for which the residual activity is listed as 53.22% in data set [1] and 80.45% in data set [2].
